Source: paper PMC5215309 (European Journal of Nuclear Medicine and Molecular Imaging, 2016)

Target: T1, PDE10A (Macaca fascicularis, UniProt A0A2K5WSP5)
T1 construct: native enzyme in living brain (in vivo PET; striatum, globus pallidus, substantia nigra)
T1 sequence (A0A2K5WSP5 1-791): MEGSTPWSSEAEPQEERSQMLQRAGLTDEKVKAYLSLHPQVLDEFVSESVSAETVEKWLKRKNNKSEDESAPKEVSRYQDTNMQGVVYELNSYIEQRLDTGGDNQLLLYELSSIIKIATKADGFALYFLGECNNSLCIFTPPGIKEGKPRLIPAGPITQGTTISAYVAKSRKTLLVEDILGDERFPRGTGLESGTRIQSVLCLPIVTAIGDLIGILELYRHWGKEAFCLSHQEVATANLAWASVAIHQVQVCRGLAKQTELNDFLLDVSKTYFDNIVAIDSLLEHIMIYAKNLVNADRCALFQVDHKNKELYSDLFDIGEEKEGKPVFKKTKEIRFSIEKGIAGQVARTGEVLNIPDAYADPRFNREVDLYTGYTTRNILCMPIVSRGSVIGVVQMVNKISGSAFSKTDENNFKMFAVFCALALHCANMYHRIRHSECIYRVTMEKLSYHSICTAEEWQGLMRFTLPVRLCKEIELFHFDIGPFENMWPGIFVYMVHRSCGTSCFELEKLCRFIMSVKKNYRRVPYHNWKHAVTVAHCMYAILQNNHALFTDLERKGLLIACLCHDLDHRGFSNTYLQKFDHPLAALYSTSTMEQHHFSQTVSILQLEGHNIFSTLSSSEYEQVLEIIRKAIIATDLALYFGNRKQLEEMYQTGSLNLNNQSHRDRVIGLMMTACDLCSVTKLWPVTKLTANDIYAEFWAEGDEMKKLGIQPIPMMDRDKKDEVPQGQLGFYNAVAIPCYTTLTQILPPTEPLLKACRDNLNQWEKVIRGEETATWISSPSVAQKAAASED
Assay: in vivo PET competition with […]Lu AE92686, Lassen plot
Conditions: two monkeys; i.v. pretreatment, mean plasma concentrations 685 and 749 ng/mL

% PDE10A occupancy at […]: 93 and 95
SMILES: Cn1cc(-c2ccncc2)c(-c2ccc(OCc3ccc4ccccc4n3)cc2)n1 [MP-10]
